From patent US20260109732A1, “LIPID AMINES” (ModernaTX, Inc., priority 2021, published 2026)
Counter-ions that a name gives are not always drawn.

Key:
[1] = Encapsulation of mRNA nanoparticles with lipid amines using Ribogreen assay; type: physicochemical; settings: CFTR mRNA nanoparticle with lipid amine
Method: (§1) Lipids are dissolved in ethanol at a concentration of 24 mg/mL and molar ratios of 49.0:11.2:39.3:0.5 (IL1:DSPC:cholesterol:PEG-DMG-2K) and mixed with the acidification buffer (45 mM acetate buffer at pH 4). The lipid solution and acidification buffer are mixed using a multi-inlet vortex mixer at a 3:7 volumetric ratio of lipid:buffer for mixer 1 and mixer 2 and a 1:3 volumetric ratio of lipid:buffer (25% ethanol) for mixer 3. After a 5 second residence time, the resulting nanoparticles are mixed with 55 mM sodium acetate at pH 5.6 at a volumetric ratio of 5:7 of nanoparticle:buffer. See Table 2a for mixing parameters. The resulting dilute nanoparticles are then buffer exchanged and concentrated using tangential flow filtration (TFF) into a final buffer containing 5 mM sodium acetate pH 5.0. Then a 70% sucrose solution in 5 mM acetate buffer at pH 5 is subsequently added.
(§2) The resulting nanoparticles at a lipid concentration of 7.33 mg/mL in 5 mM acetate (pH 5) and 75 g/L sucrose are mixed with mRNA (luciferease or CFTR) at a concentration of 0.625 mg/mL in 42.5 mM sodium acetate pH 5.0, with N:P of 4.93. The nanoparticle solution and nanoparticles are mixed using a multi-inlet vortex mixer at a 3:2 volumetric ratio of nanoparticle:mRNA. Once loaded with mRNA, these intermediate nanoparticles undergo a 300 second residence time prior addition of neutralization buffer containing 120 mM TRIS pH 8.12 at a volumetric ratio of 5:1 of nanoparticle:buffer.
(§3) For HeLa studies evaluating luciferase protein expression, PEG-DMG-2K dissolved in a 20 mM TRIS buffer (pH 7.5) is added to the neutralized intermediate nanoparticle solution at a ratio of 1:6, bringing the solution to the final molar ratios of IL1:DSPC:cholesterol:PEG-DMG-2K of 48.5:11.1:38.9:1.5%. This nanoparticle formulation is then modified with lipid amines. In a typical example, nanoparticle formulation at a concentration of 0.18 mg/mL mRNA and a 0.56 mL volume is modified with lipid amine SA50 (467.2 nmol) prepared in buffer containing 20 mM TRIS, 14.3 mM sodium acetate, 32 g/L sucrose and 140 mM NaCl-pH 7.5 at a volumetric ratio of 1:1 of nanoparticle:buffer.
(§4) For HeLa studies evaluating CFTR protein expression, the intermediate nanoparticle formulation (1 mL, 0.415 mg mRNA) is mixed with a buffer containing 20 mM TRIS (pH 7.5), 0.9 mg/mL PEG-DMG-2K and lipid amine SA50 (647.1 nmol) at a volumetric ratio of 6:1 of nanoparticle:buffer. The resulting nanoparticle suspension undergoes concentration using a centrifugal filtration device (100 kDa molecular weight cut-off) and is diluted in running buffer (20 mM TRIS, 14.3 mM sodium acetate, and 32 g/L sucrose, pH 7.5) with a 300 mM NaCl solution to a final buffer matrix containing 70 mM NaCl.
(§5) Both resulting nanoparticle suspensions are filtered through a 0.8/0.2 μm capsule filter and filled into glass vials at an mRNA strength of about 0.1-1 mg/mLBliophysical data (Diameter and PDI from DLS measurements and Encapsualtion using Ribogreen assay) for both luciferase and CFTR mRNA nanoparticles with lipid amines is shown in Tables 2c and d, respectively.

[2] = Diameter and PDI from DLS measurements of mRNA nanoparticles with lipid amines; type: physicochemical; settings: CFTR mRNA nanoparticle with lipid amine
Method: as §1, §2, §3, §4, §5

[3] = test system: HeLa cells; assay: CFTR Protein Expression Assay in HeLa Cells; type: cell-based, Human; settings: LNPs encapsulating CFTR mRNA, N=4 wells; 5 h serum-free then 24 h; immunofluorescence vs PBS control
Method: as §4
Lipid nanoparticle compositions were prepared in a manner analogous to that in example 2. To evaluate LNP cellular uptake and protein expression In Vitro, HeLa cells from ATCC.org (ATCC CCL-2) are used. The cells are cultured in complete Minimum Essential Medium (MVEM) and are plated in 96 well Cell Carrier Ultra plate with PDL coated surface (PerkinElmer) prior to running an experiment.
Buffer control (PBS) and LNPs encapsulating cystic fibrosis transmembrane conductance regulator (CFTR) mRNA were dosed with MEM media in the absence of serum (N=4 replicate wells). LNP transfected cells were incubated for 5 h, followed by media removal and supplementation with complete MEM media. Cells were further incubated in complete MEM media overnight (24 h).
Following 24 hr incubation, the cells were fixed with PFA and processed for immunofluorescence (IF) using an anti-CFTR rabbit monoclonal antibody. Briefly, the cells were permeabilized with 0.5% TX-100 for 10 min, blocked with 3% bovine serum albumin (BSA)+PBST for 1 hr at room temperature, and incubated with primary anti-CFTR monoclonal antibody overnight at 4° C. Following primary antibody incubation, the cells were incubated with Alexa 488 conjugated secondary antibody for 30 mi and stained with DAPI and HCS CellMask Blue stain. Between different incubation steps the cells were either washed with PBS or PBST. Cells were imaged using Opera Phoenix spinning disk confocal microscope (PerkinElmer), and CFTR protein expression was detected using the 488 nm channel. The image analysis was performed in Harmony 4.9, with main analysis output being CFTR intensity per cell. The results shown in Table 3b show fold-change in CFTR signal intensity per cell compared to buffer (PBS) control (NA=not available).

| Structure (SMILES) | % Encapsulation (Ribogreen) [1] [%] | Diameter (nm) [2] [nm] | PDI [2] | Average fold-change in CFTR signal intensity per cell compared to buffer control ± standard deviation [3] [fold-change] |
| --- | --- | --- | --- | --- |
| CC(C)CCC[C@@H](C)[C@H]1CC[C@H]2[C@@H]3CC=C4C[C@@H](OC(=O)CN(CCCN)CCCCNCCCN)CC[C@]4(C)[C@H]3CC[C@]12C (stereo in doubt) [SA65, ((3S,8S,9S,10R,13R,14S,17R)-10,13-dimethyl-17-((R)-6-methylheptan-2-yl)-2,3,4,7,8,9,10,11,12,13,14,15,16,17-tetradecahydro-1H-cyclopenta[a]phenanthren-3-yl N-(3-aminopropyl)-N-(4-((3-aminopropyl)amino)butyl)glycinatetetrahydrochloride] | 99.6 | 78.0 | 0.14 | 5.9 ± 0.5 |
| CC(C)CCC[C@@H](C)[C@H]1CC[C@H]2[C@@H]3CC=C4C[C@@H](OC(=O)CC(=O)N(CCCN(C)C)CCCN(C)C)CC[C@]4(C)[C@H]3CC[C@]12C.Cl.Cl [SA50, (3S,8S,9S,10R,13R,14S,17R)-10,13-Dimethyl-17-((R)-6-methylheptan-2-yl)-2,3,4,7,8,9,10,11,12,13,14,15,16,17-tetradecahydro-1H-cyclopenta[a]phenanthren-3-yl 3-(bis(3-(dimethylamino)propyl)amino)-3-oxopropanoate dihydrochloride] | 99.3 | 77.1 | 0.11 | 7.1 ± 0.4 |
| CC(C)CCC[C@@H](C)[C@H]1CC[C@H]2[C@@H]3CC=C4C[C@@H](OC(=O)CCCC(=O)N(CCCN(C)C)CCCN(C)C)CC[C@]4(C)[C@H]3CC[C@]12C.Cl.Cl [SA51, (3S,8S,9S,10R,13R,14S,17R)-10,13-Dimethyl-17-((R)-6-methylheptan-2-yl)-2,3,4,7,8,9,10,11,12,13,14,15,16,17-tetradecahydro-1H-cyclopenta[a]phenanthren-3-yl 5-(bis(3-(dimethylamino)propyl)amino)-5-oxopentanoate dihydrochloride] | 98.4 | 74.3 | 0.15 | 6.5 ± 0.4 |
| CC(C)CCC[C@@H](C)[C@H]1CC[C@H]2[C@@H]3CC=C4C[C@@H](OC(=O)CCCC(=O)N(CCCN)CCCCNCCCN)CC[C@]4(C)[C@H]3CC[C@]12C.Cl.Cl.Cl [SA58, (3S,8S,9S,10R,13R,14S,17R)-10,13-Dimethyl-17-((R)-6-methylheptan-2-yl)-2,3,4,7,8,9,10,11,12,13,14,15,16,17-tetradecahydro-1H-cyclopenta[a]phenanthren-3-yl 5-((3-aminopropyl)(4-((3-aminopropyl)amino)butyl)amino)-5-oxopentanoate trihydrochloride] | 99.6 | 71.6 | 0.10 | 4.5 ± 0.3 |
| CC(C)CCC[C@@H](C)[C@H]1CC[C@H]2[C@@H]3CC=C4C[C@@H](OC(=O)N(CCCCCCCCN(C)C)CCCN(C)C)CC[C@]4(C)[C@H]3CC[C@]12C [SA64, (3S,8S,9S,10R,13R,14S,17R)-10,13-dimethyl-17-((R)-6-methylheptan-2-yl)-2,3,4,7,8,9,10,11,12,13,14,15,16,17-tetradecahydro-1H-cyclopenta[a]phenanthren-3-yl (8-(dimethylamino)octyl)(3-(dimethylamino)propyl)carbamate] | 99.1 | 67.8 | 0.09 | 9.1 ± 0.6 |
| CC(C)CCC[C@@H](C)[C@H]1CC[C@H]2[C@@H]3CC=C4C[C@@H](OC(=O)N(CCCCOCCCN(C)C)CCCN(C)C)CC[C@]4(C)[C@H]3CC[C@]12C [SA67, (3S,8S,9S,10R,13R,14S,17R)-10,13-dimethyl-17-((R)-6-methylheptan-2-yl)-2,3,4,7,8,9,10,11,12,13,14,15,16,17-tetradecahydro-1H-cyclopenta[a]phenanthren-3-yl (4-(3-(dimethylamino)propoxy)butyl)(3-(dimethylamino)propyl)carbamate] | 99.2 | 72.8 | 0.10 | 7.7 ± 0.7 |
| CC(C)CCC[C@@H](C)[C@H]1CC[C@H]2[C@@H]3CC=C4C[C@@H](OC(=O)N(CCCCN(C)CCCN(C)C)CCCN(C)C)CC[C@]4(C)[C@H]3CC[C@]12C [SA68, (3S,8S,9S,10R,13R,14S,17R)-10,13-dimethyl-17-((R)-6-methylheptan-2-yl)-2,3,4,7,8,9,10,11,12,13,14,15,16,17-tetradecahydro-1H-cyclopenta[a]phenanthren-3-yl (3-(dimethylamino)propyl)(4-((3-(dimethylamino)propyl)(methyl)amino)butyl)carbamate] | 99.2 | 74.6 | 0.12 | 8.9 ± 0.4 |
| CC(C)CCC[C@@H](C)[C@H]1CC[C@H]2[C@@H]3CC=C4C[C@@H](OC(=O)[C@H](C)N(CCCN)CCCCNCCCN)CC[C@]4(C)[C@H]3CC[C@]12C [SA73, (3S,8S,9S,10R,13R,14S,17R)-10,13-Dimethyl-17-((R)-6-methylheptan-2-yl)-2,3,4,7,8,9,10,11,12,13,14,15,16,17-tetradecahydro-1H-cyclopenta[a]phenanthren-3-yl N-(3-aminopropyl)-N-(4-((3-aminopropyl)amino)butyl)alaninate trihydrochloride] | 100 | 92.8 | 0.16 | 9.4 ± 0.6 |
| CC(C)CCC[C@@H](C)[C@H]1CC[C@H]2[C@@H]3CC=C4C[C@@H](OC(=O)CCCC(=O)N(CCCCNCCC(C)(C)N)CCC(C)(C)N)CC[C@]4(C)[C@H]3CC[C@]12C [SA121, (3S,8S,9S,10R,13R,14S,17R)-10,13-dimethyl-17-((R)-6-methylheptan-2-yl)-2,3,4,7,8,9,10,11,12,13,14,15,16,17-tetradecahydro-1H-cyclopenta[a]phenanthren-3-yl 5-((3-amino-3-methylbutyl)(4-((3-amino-3-methylbutyl)amino)butyl)amino)-5-oxopentanoate trihydrochloride] | 97.4 | 79.2 | 0.14 | 16.2 ± 1.8 |
